From article PMC5827756, “Inhibition of Heat Shock proteins HSP90 and HSP70 induce oxidative stress, suppressing cotton fiber development” (Scientific Reports, 2018)

Target: T1, human HSP70 (Homo sapiens, UniProt P0DMV8)
T1 construct: gene HSPA1A
Test: citrate synthase thermoprotection (chaperone) assay, […] nm DTNB
Assay type: biochemical
Settings: 0.5 µM porcine heart citrate synthase, 1.8 µM HSP, 43 °C, 50 mM HEPES pH 8.0; activity read at 25 °C; inhibitor concentration not stated

T1 sequence (P0DMV8 2-641): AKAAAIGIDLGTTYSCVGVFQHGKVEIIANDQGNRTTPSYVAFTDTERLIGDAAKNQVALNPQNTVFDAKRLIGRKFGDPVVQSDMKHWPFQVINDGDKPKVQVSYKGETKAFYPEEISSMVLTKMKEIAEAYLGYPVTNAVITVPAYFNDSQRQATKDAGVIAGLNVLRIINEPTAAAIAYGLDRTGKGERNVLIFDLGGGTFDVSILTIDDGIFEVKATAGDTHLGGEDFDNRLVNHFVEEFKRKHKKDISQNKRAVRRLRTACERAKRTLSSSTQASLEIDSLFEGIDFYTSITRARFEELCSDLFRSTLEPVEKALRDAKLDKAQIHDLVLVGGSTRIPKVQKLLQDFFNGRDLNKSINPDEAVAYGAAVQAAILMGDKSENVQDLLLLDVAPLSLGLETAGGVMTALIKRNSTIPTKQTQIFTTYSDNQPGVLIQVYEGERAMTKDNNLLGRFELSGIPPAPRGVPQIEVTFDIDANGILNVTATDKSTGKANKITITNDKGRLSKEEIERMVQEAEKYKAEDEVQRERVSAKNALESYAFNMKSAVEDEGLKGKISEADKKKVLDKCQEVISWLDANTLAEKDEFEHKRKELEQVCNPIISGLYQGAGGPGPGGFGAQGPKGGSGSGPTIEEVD

With NS(=O)(=O)C#Cc1ccccc1 [Pif, pifithrin] the “citrate synthase thermoprotection (chaperone) assay, 412 nm DTNB” value was “Similarly, Pif also inhibits thermos-protection by HSP70”.
